# No end group written: not given here.
# Key:
# [1] = target: porcine epidemic diarrhea virus spike (PEDV S) protein (Porcine epidemic diarrhea virus, UniProt Q91AV1); experiment: SPR affinity assay, KD of six-amino-acid peptides to PEDV S protein; assay type: binding
# Protocol: (§1) Equilibrium dissociation constants (KD) between all 194 (115 + 79) peptides and their receptor proteins were determined by SPR using the Biacore X100 instrument. Proteins were coupled to the CM5 chip by the EDC/NHS(1-Ethyl-3-(3′-dimethylaminopropyl) carbodiimide/n-Hydroxysuccinimide) method (GE HealthCare, Chicago, IL, USA), followed by running HBS-EP (HEPES Buffered Saline–EDTA–Surfactant P20) buffer (GE HealthCare, USA) that flowed through the entire pipeline. The peptide was diluted in six different concentrations with HBS-EP buffer and flowed into the machine from low to high, and its resonance signal change was detected separately. In each cycle, the peptide solution flowed through the chip at a constant flow rate of 30 μL/min for 120 s, and the peptide reacted fully with the protein, followed by HBS-EP buffer flowing through the chip at the same rate for 120 s, and the peptide was partially dissociated from the protein. Finally, the peptides bound to the proteins were completely eluted off with 0.25% SDS solution for the next cycle until all peptides were detected. The KD between each peptide and protein was calculated and analyzed using Biacore X100 Evaluation Software (Version 2.1) to determine its affinity.
# Following the methods described above, a totally new dataset was constructed to further verify the performance of the constructed model. […] Meanwhile, the PEDV peptides were synthesized and tested by SPR successively, and the obtained KD values were further used to define the class of each peptide based on the criteria described above. Finally, the new 6-amino-acid peptide dataset for PEDV S combining all scores of the important features and class information was built to further test the predictive correctness of the RF model (Supplementary Table S2).
# [2] = target: T1, amyloid β-protein 42 (Aβ-42) (Homo sapiens, UniProt P05067); experiment: SPR affinity assay (Biacore X100), KD of peptides to Aβ-42; assay type: binding; details: Biacore X100, protein coupled to CM5 chip, HBS-EP buffer, six peptide concentrations, same value repeated on each docking-run line
# T1 construct: amyloid β-protein 42 (Aβ-42, n = 79)
# T1 sequence (P05067 672-713 limits assumed): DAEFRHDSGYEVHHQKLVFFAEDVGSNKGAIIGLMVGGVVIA
# Protocol: as §1
# [3] = Receptor PEDV S, SPR, value repeated on each docking-pose line of the peptide
# [4] = Receptor PEDV S, PEDV peptide dataset used for model performance validation, value repeated on each docking-pose line
# [5] = receptor PEDV S, PEDV peptide dataset used for model performance validation, same value repeated on each line of a peptide
# [6] = SPR, receptor PEDV S, value repeated on each of the 20 docking-pose lines per peptide
# [7] = SPR, peptide to PEDV S protein, value repeated on each docking-pose line of the peptide
# [8] = receptor PEDV S, PEDV peptide dataset for model performance validation, value repeated on each of the peptide's 20 lines
# porcine epidemic diarrhea virus spike (PEDV S) protein, sequence (Q91AV1 26-1383): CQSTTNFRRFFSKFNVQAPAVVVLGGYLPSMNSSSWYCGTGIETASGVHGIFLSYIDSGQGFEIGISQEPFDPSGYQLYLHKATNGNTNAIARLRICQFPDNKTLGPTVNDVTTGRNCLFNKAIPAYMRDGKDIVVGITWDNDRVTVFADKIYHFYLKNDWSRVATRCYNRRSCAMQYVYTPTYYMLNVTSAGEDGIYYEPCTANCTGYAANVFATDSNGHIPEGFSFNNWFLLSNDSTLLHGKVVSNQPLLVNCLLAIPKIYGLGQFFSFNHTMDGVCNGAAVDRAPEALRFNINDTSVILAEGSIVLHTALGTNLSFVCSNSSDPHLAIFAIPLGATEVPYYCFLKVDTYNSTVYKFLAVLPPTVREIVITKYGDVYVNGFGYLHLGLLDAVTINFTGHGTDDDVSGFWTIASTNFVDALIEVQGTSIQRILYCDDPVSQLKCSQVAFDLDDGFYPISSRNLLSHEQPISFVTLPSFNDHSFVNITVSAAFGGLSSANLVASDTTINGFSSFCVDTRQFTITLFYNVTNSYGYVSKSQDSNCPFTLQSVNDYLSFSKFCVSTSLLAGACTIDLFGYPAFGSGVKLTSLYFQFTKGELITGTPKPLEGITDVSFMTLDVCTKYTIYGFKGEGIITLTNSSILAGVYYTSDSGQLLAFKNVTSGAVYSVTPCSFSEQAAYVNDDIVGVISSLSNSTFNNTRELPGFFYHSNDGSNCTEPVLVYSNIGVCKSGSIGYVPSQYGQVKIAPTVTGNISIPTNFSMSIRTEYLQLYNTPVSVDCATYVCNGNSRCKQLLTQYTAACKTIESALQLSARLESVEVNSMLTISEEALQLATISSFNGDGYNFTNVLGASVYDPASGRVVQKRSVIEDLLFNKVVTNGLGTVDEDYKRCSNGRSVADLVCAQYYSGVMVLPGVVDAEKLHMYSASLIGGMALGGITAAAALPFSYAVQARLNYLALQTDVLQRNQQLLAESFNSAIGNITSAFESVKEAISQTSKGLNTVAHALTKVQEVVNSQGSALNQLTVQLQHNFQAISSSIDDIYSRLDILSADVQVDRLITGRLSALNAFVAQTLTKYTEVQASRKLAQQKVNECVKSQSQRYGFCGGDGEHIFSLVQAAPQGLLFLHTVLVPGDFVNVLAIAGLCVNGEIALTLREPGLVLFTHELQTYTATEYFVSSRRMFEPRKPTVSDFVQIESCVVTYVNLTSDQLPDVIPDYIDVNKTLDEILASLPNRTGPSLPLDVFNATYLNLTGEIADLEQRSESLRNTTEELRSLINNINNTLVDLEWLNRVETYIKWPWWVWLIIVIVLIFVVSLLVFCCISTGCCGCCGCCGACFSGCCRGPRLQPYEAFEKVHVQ
compound,measurement,setting,value
RKQYWQ [DPL_1058],Kd,[1]; [3],728 µM
YVRHGH [DPL_1069],Kd,[2],37.1 µM
WHFEYF [DPL_1043],Kd,[1]; [4],43.7 µM
RKQKDW [DPL_1049],Kd,[1]; [5],0.35 µM
FWKSWH [DPL_1016],Kd,[1]; [6],34.9 µM
KHQWKY [DPL_1062],Kd,[1]; [3],326 µM
RKQHIS [DPL_1056],Kd,[1]; [3],384 µM
RKQICW [DPL_1053],Kd,[1]; [5],21.8 µM
FWKISH [DPL_1030],Kd,[1]; [4],28 µM
FWKYNT [DPL_1023],Kd,[1]; [7],32.5 µM
FWKKED [DPL_1020],Kd,[1]; [6],7.04 µM
FWKQNK [DPL_1013],Kd,[1]; [6],1190 µM
FWKWHW [DPL_1014],Kd,[1]; [6],0.136 µM
FWKCDV [DPL_1022],Kd,[1]; [7],116 µM
RKQGVK [DPL_1054],Kd,[1]; [5],192 µM
FWKHRI [DPL_1029],Kd,[1]; [7],36 µM
FWKEAK [DPL_1032],Kd,[1]; [4],7.72 µM
WHFCQH [DPL_1038],Kd,[1]; [4],0.16 µM
FWKFNE [DPL_1027],Kd,[1]; [7],56.6 µM
RKQHLL [DPL_1055],Kd,[1]; [3],1 µM
FWKQNKFL [DPL_1035],Kd,[1]; [4],15 µM
WHFQNQ [DPL_1037],Kd,[1]; [4],3.23 µM
WHFSKC [DPL_1036],Kd,[1]; [4],3.22 µM
FWKYHE [DPL_1015],Kd,[1]; [6],43.4 µM
FWKPDQ [DPL_1019],Kd,[1]; [6],16.7 µM
N=C(N)NCCC[C@H](NC(=O)[C@H](CCCCN)NC(=O)[C@H](CO)NC(=O)[C@H](CCCCN)NC(=O)[C@H](Cc1c[nH]c2ccccc12)NC(=O)[C@@H](N)Cc1ccccc1)C(=O)O [DPL_1031],Kd,[1]; [4],2.16 µM
WHFMIK [DPL_1048],Kd,[1]; [5],0.13 µM
FWKPKR [DPL_1021],Kd,[1]; [6],39.5 µM
WHFGSK [DPL_1047],Kd,[1]; [5],69.8 µM
RKQSHK [DPL_1052],Kd,[1]; [5],44.5 µM
FWKYAW [DPL_1028],Kd,[1]; [7],56.8 µM
FWKQNKCR [DPL_1034],Kd,[1]; [4],24.2 µM
KHQVHR [DPL_1064],Kd,[1]; [8],9.82 µM
KHQKRC [DPL_1067],Kd,[1]; [8],0.139 µM
FWKWWW [DPL_1026],Kd,[1]; [7],17.7 µM
RKQFDK [DPL_1051],Kd,[1]; [5],0.00736 µM
WHFNRP [DPL_1046],Kd,[1]; [4],65.2 µM
WHFFKT [DPL_1039],Kd,[1]; [4],25.7 µM
WHFMIY [DPL_1040],Kd,[1]; [4],179 µM
WHFWIV [DPL_1042],Kd,[1]; [4],15.2 µM
WHFWWQ [DPL_1044],Kd,[1]; [4],88.5 µM
FWKFWK [DPL_1018],Kd,[1]; [6],25.4 µM
RKQHCK [DPL_1057],Kd,[1]; [3],1.53 µM
FWKLWS [DPL_1024],Kd,[1]; [7],0.987 µM
KHQHFG [DPL_1063],Kd,[1]; [8],9.99 µM
WHFHWP [DPL_1045],Kd,[1]; [4],176 µM
FWKHEK [DPL_1025],Kd,[1]; [7],132 µM
FWKAKQ [DPL_1033],Kd,[1]; [4],45.5 µM
FWKHDI [DPL_1017],Kd,[1]; [6],56.2 µM
KHQAHH [DPL_1060],Kd,[1]; [3],0.0431 µM
WHFKYR [DPL_1041],Kd,[1]; [4],0.0015 µM
RKQWPQ [DPL_1050],Kd,[1]; [5],0.556 µM

# From publication PMC10380188, “A Random Forest Model for Peptide Classification Based on Virtual Docking Data” (International Journal of Molecular Sciences, 2023)
